ChEMBL document CHEMBL3045876, “Molecular modeling studies and synthesis of novel quinoxaline derivatives with potential anti-cancer activity as inhibitors of methionine synthase” (Med Chem Res, 2013)

Tests used:
MCF7 = test: Cytotoxicity against Homo sapiens (human) MCF7 cells after 96 hr by MTT assay; assay type: functional, cell-based; conditions: MCF7, 96 h
[1] = molecular target: Methionine synthase (Homo sapiens) (UniProt Q99707); test: Inhibition of methionine synthase (unknown origin) by cell free assay; set-up: concentration or dose not given beside the values; conditions: concentration not given here
PC-3 = test: Cytotoxicity against Homo sapiens (human) PC3 cells after 96 hr by MTT assay; assay type: functional, cell-based; conditions: PC-3, 96 h

Chain of Methionine synthase (Homo sapiens) (Q99707 whole entry): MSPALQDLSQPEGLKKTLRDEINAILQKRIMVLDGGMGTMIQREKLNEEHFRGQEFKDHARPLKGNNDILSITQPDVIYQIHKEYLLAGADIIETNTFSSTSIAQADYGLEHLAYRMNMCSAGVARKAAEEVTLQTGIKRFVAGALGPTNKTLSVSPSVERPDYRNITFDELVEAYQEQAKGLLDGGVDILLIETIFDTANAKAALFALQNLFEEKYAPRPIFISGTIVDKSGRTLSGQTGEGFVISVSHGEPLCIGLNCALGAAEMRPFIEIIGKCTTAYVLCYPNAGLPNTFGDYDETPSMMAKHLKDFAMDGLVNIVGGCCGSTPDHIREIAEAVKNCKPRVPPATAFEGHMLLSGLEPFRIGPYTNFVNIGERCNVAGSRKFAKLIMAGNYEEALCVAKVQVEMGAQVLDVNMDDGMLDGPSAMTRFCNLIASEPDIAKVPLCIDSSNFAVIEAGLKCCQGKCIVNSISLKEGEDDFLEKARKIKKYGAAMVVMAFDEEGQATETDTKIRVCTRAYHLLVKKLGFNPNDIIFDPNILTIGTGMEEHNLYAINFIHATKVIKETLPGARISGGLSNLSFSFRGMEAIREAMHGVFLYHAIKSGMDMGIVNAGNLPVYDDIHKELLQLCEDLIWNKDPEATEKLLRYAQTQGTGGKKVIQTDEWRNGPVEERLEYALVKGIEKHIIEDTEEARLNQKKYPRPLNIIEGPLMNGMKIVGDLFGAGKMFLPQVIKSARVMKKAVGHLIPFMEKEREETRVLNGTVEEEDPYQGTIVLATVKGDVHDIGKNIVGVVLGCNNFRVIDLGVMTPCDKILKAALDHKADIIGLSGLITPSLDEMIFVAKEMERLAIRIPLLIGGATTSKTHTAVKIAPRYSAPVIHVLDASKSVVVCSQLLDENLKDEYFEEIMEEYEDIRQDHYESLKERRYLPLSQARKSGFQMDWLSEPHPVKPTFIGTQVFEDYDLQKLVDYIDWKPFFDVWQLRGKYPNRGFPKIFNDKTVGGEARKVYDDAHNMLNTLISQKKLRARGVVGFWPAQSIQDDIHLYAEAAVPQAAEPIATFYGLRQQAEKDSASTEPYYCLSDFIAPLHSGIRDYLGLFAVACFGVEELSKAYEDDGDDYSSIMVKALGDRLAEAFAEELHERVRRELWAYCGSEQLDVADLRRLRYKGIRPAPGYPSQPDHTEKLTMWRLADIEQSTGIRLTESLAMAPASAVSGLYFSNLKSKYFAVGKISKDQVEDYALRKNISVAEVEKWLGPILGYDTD

| inhibition [1] | SMILES | IC50 (MCF7) | IC50 (PC-3) |
| --- | --- | --- | --- |
| 45% | O=[N+]([O-])c1ccc2nc(CNc3ccc(Cl)cc3)cnc2c1 | 75 µM | 70 µM |
| 45% | Cc1cccc(NCc2cnc3cc([N+](=O)[O-])ccc3n2)c1 | 79 µM | 77 µM |
| 55% | O=[N+]([O-])c1ccc2nc(CCl)cnc2c1 | 66 µM | 70 µM |
| 65.9% | O=[N+]([O-])c1ccc2nc(CNc3ccccc3)cnc2c1 | 61 µM | 56 µM |

Further lines, the molecule ahead of its results:

| SMILES | inhibition [1] | IC50 (MCF7) | IC50 (PC-3) |
| --- | --- | --- | --- |
| O=C(O)c1ccc(NCc2cnc3cc([N+](=O)[O-])ccc3n2)cc1 | 89% | 53 µM | 45 µM |
| CNC(=O)c1ccc(NCc2cnc3cc([N+](=O)[O-])ccc3n2)cc1 |  | 47 µM | 49 µM |
| CCNC(=O)c1ccc(NCc2cnc3cc([N+](=O)[O-])ccc3n2)cc1 |  | 49 µM | 66 µM |
| Cc1ccc(NCc2cnc3cc([N+](=O)[O-])ccc3n2)cc1 | 65% | 68 µM | 57 µM |
